A word on the IC50: it is the midpoint of a concentration-inhibition curve.

The structures appear in SMILES notation.

Our source for the IC50 values is US12371428B2 (Exelixis, Inc., priority 2019, dated 2025).

What all share (assay type): biochemical
For assay [1], the target named is Human KDR (residues 790-1356) (Homo sapiens (Human), UniProt P35968). In words: Human KDR kinase assay, HTRF KinEase (Example B-2). As to conditions: protocol of Example B-2 (other compounds). In outline: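 Human KDR residues 790-1356 (0.1 ng/well) in buffer with 5 mM MgCl2, 1 mM MnCl2, 1 mM DTT, biotinylated peptide substrate, ATP at Km (4.0 μM), 3% DMSO, 10 compound concentrations; 40 min, room temperature. EDTA stop, streptavidin-XL665/Eu-TK antibody HTRF read 665/620 nm; 4-parameter IC50.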
On the technique in general: In TR-FRET formats the signal depends on donor and acceptor labels being close together.

In assay [2] the target is Human MER (residues 528-999) (Homo sapiens (Human), UniProt Q12866). In words: Human Mer kinase assay, HTRF KinEase (Example C-2). The note with it: protocol of Example C-2 (other compounds). In outline:
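Recombinant MER 528-999 (1 ng/well) in buffer with 5 mM MgCl2 and 1 mM DTT was reacted with biotinylated peptide and ATP at Km (40 μM) for 60 min at room temperature. EDTA stop with SA-XL665 and Eu3+ TK antibody, then 665/620 nm HTRF read; IC50 from 4-parameter fit.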

Assay [3] has as its target Human MET (residues 956-1390) (Homo sapiens (Human), UniProt P08581). Kind of assay: Human Met kinase assay, HTRF KinEase (Example D-2). The note with it: protocol of Example D-2 (other compounds); read-out: c-Met IC50. In outline: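 MET kinase domain (956-1390), 0.1 ng/well, in buffer with 5 mM MgCl2, 1 mM DTT and 1 mM MnCl2, phosphorylated a biotinylated peptide at ATP Km for 40 min at RT; 10 concentrations, 3% DMSO final. EDTA-stopped HTRF read after 60 min; IC50 from a 4-parameter logistic fit.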

Human KDR (residues 790-1356), sequence (P35968 790-1356): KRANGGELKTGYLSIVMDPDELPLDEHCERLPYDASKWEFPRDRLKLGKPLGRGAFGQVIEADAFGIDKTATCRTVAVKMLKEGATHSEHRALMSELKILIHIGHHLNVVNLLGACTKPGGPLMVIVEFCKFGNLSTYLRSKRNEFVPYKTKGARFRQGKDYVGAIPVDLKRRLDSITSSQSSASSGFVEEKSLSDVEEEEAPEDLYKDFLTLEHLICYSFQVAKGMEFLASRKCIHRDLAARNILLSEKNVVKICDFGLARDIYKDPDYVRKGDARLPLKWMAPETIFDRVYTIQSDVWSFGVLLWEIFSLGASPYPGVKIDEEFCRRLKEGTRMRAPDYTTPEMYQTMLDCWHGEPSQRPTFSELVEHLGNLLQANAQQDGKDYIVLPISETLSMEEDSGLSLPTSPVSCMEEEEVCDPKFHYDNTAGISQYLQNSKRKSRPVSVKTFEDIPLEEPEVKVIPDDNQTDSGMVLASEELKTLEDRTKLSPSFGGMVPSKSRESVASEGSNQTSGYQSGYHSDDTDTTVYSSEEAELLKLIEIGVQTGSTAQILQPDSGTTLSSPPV
Human MET (residues 956-1390), sequence (P08581 956-1390): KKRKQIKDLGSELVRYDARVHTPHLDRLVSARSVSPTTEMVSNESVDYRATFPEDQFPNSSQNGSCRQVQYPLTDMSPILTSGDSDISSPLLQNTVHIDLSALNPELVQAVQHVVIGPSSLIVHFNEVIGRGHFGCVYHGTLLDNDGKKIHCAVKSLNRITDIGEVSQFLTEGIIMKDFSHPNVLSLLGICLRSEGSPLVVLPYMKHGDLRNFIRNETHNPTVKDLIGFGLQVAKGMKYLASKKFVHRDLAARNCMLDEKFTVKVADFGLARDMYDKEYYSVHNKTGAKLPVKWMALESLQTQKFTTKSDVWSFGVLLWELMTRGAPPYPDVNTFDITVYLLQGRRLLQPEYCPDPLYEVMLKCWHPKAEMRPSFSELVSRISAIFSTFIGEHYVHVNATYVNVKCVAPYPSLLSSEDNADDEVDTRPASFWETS
Human MER (residues 528-999), sequence (Q12866 528-999): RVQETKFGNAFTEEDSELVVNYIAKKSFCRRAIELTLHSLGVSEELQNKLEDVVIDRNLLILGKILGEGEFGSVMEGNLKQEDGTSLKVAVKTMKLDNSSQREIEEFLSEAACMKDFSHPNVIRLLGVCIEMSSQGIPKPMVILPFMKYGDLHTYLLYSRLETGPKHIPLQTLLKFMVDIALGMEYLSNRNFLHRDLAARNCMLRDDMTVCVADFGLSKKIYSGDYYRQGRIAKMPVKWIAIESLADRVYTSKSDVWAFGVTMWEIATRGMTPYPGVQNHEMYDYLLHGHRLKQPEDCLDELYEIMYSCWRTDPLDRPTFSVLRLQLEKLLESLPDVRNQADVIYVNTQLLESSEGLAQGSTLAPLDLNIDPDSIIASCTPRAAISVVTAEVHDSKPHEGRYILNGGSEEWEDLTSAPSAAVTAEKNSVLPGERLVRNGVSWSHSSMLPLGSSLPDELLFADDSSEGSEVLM

Consider `COc1cnc2c(Oc3ccc(NC(=O)c4c(C)ccn(-c5ccc(F)cc5)c4=O)cc3)ccnc2c1` [Compound 300, 1-(4-Fluorophenyl)-N-[4-[(7-methoxy-1,5-naphthyridin-4-yl)oxy]phenyl]-4-methyl-2-oxopyridine-3-carboxamide], for which the results for the IC50 in assay [1], in assay [2] and in assay [3] were 100 to 300 nM, below 100 nM and 100 to 300 nM, respectively.
In the case of `COCc1ncc(C(=O)Nc2ccc(Oc3ccnc4cc(OC)c(OC)nc34)c(F)c2)c(O)c1-c1ccc(F)cc1` [Compound 301, N-[4-[(6,7-Dimethoxy-1,5-naphthyridin-4-yl)oxy]-3-fluorophenyl]-5-(4-fluorophenyl)-4-hydroxy-6-(methoxymethyl)pyridine-3-carboxamide], the IC50 in assay [1], in assay [2] and in assay [3] was below 100 nM in each case.
As to `COc1ccc2nccc(Oc3ccc(NC(=O)c4c(C)nc(C)c(-c5ccc(F)cc5)c4O)cc3)c2n1` [Compound 340, 5-(4-fluorophenyl)-4-hydroxy-N-[4-[(6-methoxy-1,5-naphthyridin-4-yl)oxy]phenyl]-2,6-dimethylpyridine-3-carboxamide], the IC50 in assay [1], in assay [2] and in assay [3] was below 100 nM throughout.
With `COc1ccc2nccc(Oc3ccc(NC(=O)c4cn(C(C)C)c(C)c(-c5ccc(F)cc5)c4=O)cc3)c2n1` [Compound 341, 5-(4-fluorophenyl)-N-[4-[(6-methoxy-1,5-naphthyridin-4-yl)oxy]phenyl]-6-methyl-4-oxo-1-propan-2-ylpyridine-3-carboxamide], the IC50 is above 300 nM in assay [1], below 100 nM in assay [2] and below 100 nM in assay [3].
Regarding `COc1ccc2nccc(Oc3ccc(NC(=O)c4cnc(C)c(-c5ccc(F)cc5)c4O)cc3)c2n1` [Compound 342, 5-(4-fluorophenyl)-4-hydroxy-N-[4-[(6-methoxy-1,5-naphthyridin-4-yl)oxy]phenyl]-6-methylpyridine-3-carboxamide], the IC50 is 100 to 300 nM in assay [1], below 100 nM in assay [2] and below 100 nM in assay [3].
As for `COc1ccc2nccc(Oc3ccc(NC(=O)c4ccc(C)n(-c5ccc(F)cc5)c4=O)cc3)c2n1` [Compound 343, 1-(4-fluorophenyl)-N-[4-[(6-methoxy-1,5-naphthyridin-4-yl)oxy]phenyl]-6-methyl-2-oxopyridine-3-carboxamide], the IC50 is 100 to 300 nM in assay [1], below 100 nM in assay [2] and below 100 nM in assay [3].
`COc1ccc2nccc(Oc3ccc(NC(=O)c4c(C)nc(C)c(-c5ccc(F)cc5)c4O)cc3F)c2c1` [Compound 345, N-[3-fluoro-4-(6-methoxyquinolin-4-yl)oxyphenyl]-5-(4-fluorophenyl)-4-hydroxy-2,6-dimethylpyridine-3-carboxamide]: the IC50 in assay [1] is 100 to 300 nM; in assay [2], below 100 nM; in assay [3] it was below 100 nM.
For the compound `COc1ccc2nccc(Oc3ccc(NC(=O)c4ccc(C)n(-c5ccc(F)cc5)c4=O)cc3F)c2c1` [Compound 346, N-[3-fluoro-4-(6-methoxyquinolin-4-yl)oxyphenyl]-1-(4-fluorophenyl)-6-methyl-2-oxopyridine-3-carboxamide], the IC50 in assay [1] is 100 to 300 nM; in assay [2], below 100 nM; in assay [3] it was below 100 nM.
Turning to `COc1ccc2nccc(Oc3ccc(NC(=O)c4cnc(C)c(-c5ccc(F)cc5)c4O)cc3F)c2c1` [Compound 347, N-[3-fluoro-4-(6-methoxyquinolin-4-yl)oxyphenyl]-5-(4-fluorophenyl)-4-hydroxy-6-methylpyridine-3-carboxamide], the IC50 is 100 to 300 nM in assay [1], below 100 nM in assay [2] and below 100 nM in assay [3].
Turning to `COCCOc1ccc2nccc(Oc3ccc(NC(=O)c4ccc(C)n(-c5ccc(F)cc5)c4=O)cc3F)c2n1` [Compound 350, N-[3-fluoro-4-[[6-(2-methoxyethoxy)-1,5-naphthyridin-4-yl]oxy]phenyl]-1-(4-fluorophenyl)-6-methyl-2-oxopyridine-3-carboxamide], the concentration for half-maximal inhibition (IC50) in assay [1] was 100 to 300 nM; in assay [2] it was below 100 nM; in assay [3], below 100 nM.
With `Cc1ccc(C(=O)Nc2ccc(Oc3ccnc4ccc(OCCN5CCOCC5)nc34)c(F)c2)c(=O)n1-c1ccc(F)cc1` [Compound 351, N-[3-fluoro-4-[[6-(2-morpholin-4-ylethoxy)-1,5-naphthyridin-4-yl]oxy]phenyl]-1-(4-fluorophenyl)-6-methyl-2-oxopyridine-3-carboxamide], the IC50 in assay [1] was above 300 nM; in assay [2], below 100 nM; in assay [3], below 100 nM.
For `Cc1ncc(C(=O)Nc2ccc(Oc3ccnc4ccc(OCCN5CCOCC5)nc34)c(F)c2)c(O)c1-c1ccc(F)cc1` [Compound 352, N-[3-fluoro-4-[[6-(2-morpholin-4-ylethoxy)-1,5-naphthyridin-4 yl]oxy]phenyl]-5-(4-fluorophenyl)-4-hydroxy-6-methylpyridine-3-carboxamide], the IC50 in assay [1] was 100 to 300 nM; in assay [2] it was below 100 nM; in assay [3] it was below 100 nM.
For `Cc1ccc(C(=O)Nc2ccc(Oc3ccnc4ccc(OCCN(C)C)nc34)c(F)c2)c(=O)n1-c1ccc(F)cc1` [Compound 353, N-[4-[[6-[2-(dimethylamino)ethoxy]-1,5-naphthyridin-4-yl]oxy]-3-fluorophenyl]-1-(4-fluorophenyl)-6-methyl-2-oxopyridine-3-carboxamide], the IC50 in assay [1] is above 300 nM; in assay [2] it was below 100 nM; in assay [3] it was below 100 nM.
Take `Cc1nc(C)c(-c2ccc(F)cc2)c(O)c1C(=O)Nc1ccc(Oc2ccnc3ccc(OCCN(C)C)nc23)c(F)c1` [Compound 354, N-[4-[[6-[2-(dimethylamino)ethoxy]-1,5-naphthyridin-4-yl]oxy]-3-fluorophenyl]-5-(4-fluorophenyl)-4-hydroxy-2,6-dimethylpyridine-3-carboxamide]: the IC50 in assay [1] was 100 to 300 nM; in assay [2] it was below 100 nM; in assay [3] it was below 100 nM.
For `Cc1nc(C)c(-c2ccc(F)cc2)c(O)c1C(=O)Nc1ccc(Oc2ccnc3ccc(OCCN4CCOCC4)nc23)c(F)c1` [Compound 355, N-[3-fluoro-4-[[6-(2-morpholin-4-ylethoxy)-1,5-naphthyridin-4-yl)oxy]phenyl]-5-(4-fluorophenyl)-4-hydroxy-2,6-dimethylpyridine-3-carboxamide], the 50% inhibitory concentration (IC50) in assay [1], in assay [2] and in assay [3] was below 100 nM each time.
For the compound `COc1ccc2nccc(Oc3ccc(NC(=O)c4cn(C)c(C)c(-c5ccc(F)cc5)c4=O)cc3)c2n1` [Compound 356, 5-(4-fluorophenyl)-N-[4-[(6-methoxy-1,5-naphthyridin-4-yl)oxy]phenyl]-1,6-dimethyl-4-oxopyridine-3-carboxamide], the IC50 in assay [1] is above 300 nM; in assay [2] it was below 100 nM; in assay [3] it was 100 to 300 nM.
For `COc1cc2nccc(Oc3ccc(NC(=O)c4nn(C(C)C)c(C)c(-c5ccc(F)cc5)c4=O)cc3F)c2nc1OC` [Compound 364, N-[4-[(6,7-dimethoxy-1,5-naphthyridin-4-yl)oxy]-3-fluorophenyl]-5-(4-fluorophenyl)-6-methyl-4-oxo-1-propan-2-ylpyridazine-3-carboxamide], the IC50 in assay [1], in assay [2] and in assay [3] was below 100 nM in each case.
